We go through 50 compounds from US5342851A, “Substituted thiazole derivatives useful as platelet aggregation inhibitors” (McNeil-PPC, Inc., priority 1992, dated 1994).

Where a name gives a salt, the structure may show the parent alone.

For test [1], the system named is activated platelets (125I-fibrinogen binding). Kind of test: Fibrinogen Binding (125I-fibrinogen binding to activated platelets). The note with it: read-out: Binding (IC50, concentration of compound which provides 50% fibrinogen binding); thrombin-stimulated platelets; 0.15 μM 125I-fibrinogen. How it is done: The compounds of the invention as identified above are evaluated for platelet aggregation inhibition activity as indicated by the percentage of nonaggregated platelets which are available for binding in accordance with the following procedure.
Briefly, 40 mL of PRP (obtained from Biological Specialty Corp., Lansdale, Pa.) are centrifuged at 120×g to remove contaminating red cells. Aspirin (50 μM) is added and the PRP is incubated at 37° C. for 20 minutes. […] Platelets are concentrated by a 300×g centrifugation (10 minutes) and the pellet is resuspended in 4 mL. of Tyrode's buffer. The platelet suspension (4 mL) is gel-filtered through a Sepharose-2B column (50 mL bed volume). […] The binding reaction is performed in polystyrene tubes (final volume […]). Reagents are added in the following order: 80 mL of Tyrode's buffer, 50 mL of CaCl2 (final concentration (f.c.) […]) and 50 mL of thrombin (f.c. 0.1 unit/mL). The platelet suspension is then added and the mixture is allowed to incubate at room temperature for 2 minutes. Hirudin (50 mL, f.c. 0.5 unit/mL) is immediately added to prevent the catalytic activity of thrombin. […] The mixture is incubated for 10 minutes at room temperature. To terminate the binding reaction the platelets are sedimented (10,000×g for 3 minutes) through silicone oil (3:1 hi-phenol 550/methyl silicone 200, W. F. Nye, Inc., New Bedford, Mass.), in an Eppendorf centrifuge.
The amount of platelet radioactivity measured in the presence of nonlabeled fibrinogen (4 mg/mL) is considered the nonspecific binding. All samples are repeated in triplicate.
Positive percentages of fibrinogen binding indicates higher activity for inhibiting platelet aggregation since only non-aggregated or free platelets are available for fibrinogen binding.

Test [2] has as its system platelets (gel-filtered platelet rich plasma). Kind of test: Platelet Aggregation Inhibition Activity (agonist thrombin or ADP, light transmission). It is filed as cell-based. The note with it: for IC50: read-out: Aggregation (IC50, concentration at which the increase in light transmission equals 50%), thrombin or ADP agonist, 37° C., three minutes.
Method: The percentage of platelet aggregation is calculated as an increase in light transmission of drug treated platelet concentrate versus control treated platelet concentrate. Blood is obtained from drug free, normal donors into tubes containing 0.13M sodium citrate (two sources are routinely used: platelet concentrate obtained from Biological Specialty Corp., Lansdale, Pa. or whole blood obtained from donors). Platelet rich plasma (PRP) is collected by centrifugation of the concentrate or whole blood at 130×g for 15 minutes at 25° C. The PRP (5 mL) is gel filtered through Sepharose 2B (bed volume 50 mL), and the platelet count is adjusted to 2×10^7 platelets per sample. The following constituents are added to a siliconized cuvette: 250 μL of the concentrated platelet filtrate, 100 μL of Tyrode's buffer (0.14M NaCl, 0.0027M KCl, 0.012M NaHCO3, 0.76 mM Na2 HPO4, 0.0055M glucose and 2 mg/mL BSA pH 7.4), 50 μL of 2 mM calcium and test drug (50 mL).
Aggregation is monitored in a dual channel Chrono-log Aggregometer for three minutes following the addition of agonist (thrombin 50 μL of 1 unit/mL, or ADP 50 μL of 100 μM). The final assay volume is 500 μL. The reaction takes place at 37° C. The peak aggregation response is calculated as the increase in light transmission units over a three minute period. The difference of the increase in light transmission between control and drug treated platelets is then expressed as a percent of the nondrug treated controls. […] A percentage increase in light transmission indicates platelet aggregation inhibition activity for the tested compound.
The mark [3] stands for this setting: Homo sapiens, thrombin or ADP agonist, read-out: Aggregation (percentage increase in light transmission).

On to `CCN(CC)CCNC(=O)c1cnn(-c2nc(-c3cccc(C(F)(F)F)c3)cs2)c1C(F)(F)F` [Example 34], for which, in test [1], the IC50 was found to be 6 µM.

Regarding `CCN(CC)CCNC(=O)c1cnn(-c2nc(-c3ccc([N+](=O)[O-])cc3)cs2)c1C(F)(F)F` [Example 35], the IC50 in test [2] came out at 75 µM.

In the case of `CN(C)CCCNC(=O)c1cnn(-c2nc(-c3ccc([N+](=O)[O-])cc3)cs2)c1C(F)(F)F` [Example 36], the IC50 in test [1] was 50 µM.

As for `CCN(CC)CCCNC(=O)c1cnn(-c2nc(-c3cccc(C(F)(F)F)c3)cs2)c1C(F)(F)F` [Example 37], the IC50 in test [1] amounted to 4 µM; in test [2], 15 µM. With `CCCCN(CCCC)CCCNC(=O)c1cnn(-c2nc(-c3cccc(C(F)(F)F)c3)cs2)c1C(F)(F)F` [Example 38], the IC50 was 75 µM in test [1] and 56 µM in test [2]. For the compound `CN(C)CCCNC(=O)c1cnn(-c2nc(-c3cccc(C(F)(F)F)c3)cs2)c1C(F)(F)F` [Example 39], the IC50 in test [1] stood at 16 µM; in test [2] it was 30 µM.

With `CCN(CC)CCCNC(=O)c1cnn(-c2nc(-c3cccc(OC)c3)cs2)c1C(F)(F)F` [Example 40], the results for the IC50 in test [1] and in test [2] were 65 µM and 30 µM, respectively. For the compound `CCN(CC)CCCNC(=O)c1cnn(-c2nc(-c3ccc(OC)cc3)cs2)c1C(F)(F)F` [Example 41], the IC50 in test [2] was 30 µM. As for `CCN(CC)CCCNC(=O)c1cnn(-c2nc(-c3ccc(C)cc3)cs2)c1C(F)(F)F` [Example 43], the IC50 in test [1] was determined as 70 µM; in test [2] it was 6 µM. `CCCCN(CCCC)CCCNC(=O)c1cnn(-c2nc(-c3ccc(C)cc3)cs2)c1C(F)(F)F` [Example 45]: the values for the IC50 in test [1] and in test [2] were 8.5 µM and 45 µM, respectively. In the case of `CCN(CC)CCCNC(=O)c1cnn(-c2nc(-c3cccc(C(F)(F)F)c3)c(Br)s2)c1C(F)(F)F` [Example 46], the IC50 in test [1] amounted to 11.3 µM; in test [2], 2.7 µM. `CCN(CC)CCCNC(=O)c1cnn(-c2nc(-c3cc(OC)c(OC)c(OC)c3)cs2)c1C(F)(F)F` [Example 47]: the IC50 in test [2] is 5.6 µM. On to `CCN(CC)CCCNC(=O)c1cnn(-c2nc(-c3ccccc3)cs2)c1C(F)(F)F` [Example 50], for which the results for the IC50 in test [1] and in test [2] were 50 µM and 30 µM, respectively. Turning to `O=C(NCCN1CCCC1)c1cnn(-c2nc(-c3cccc(C(F)(F)F)c3)cs2)c1C(F)(F)F` [Example 51], the IC50 in test [2] was determined as 30 µM. Same read-out and setting: the result for `CCN(CC)CCCCNC(=O)c1cnn(-c2nc(-c3cccc(C(F)(F)F)c3)cs2)c1C(F)(F)F` [Example 52] reads 6 µM. In the case of `CC1CCCCN1CCCNC(=O)c1cnn(-c2nc(-c3cccc(C(F)(F)F)c3)cs2)c1C(F)(F)F` (centres unmarked) [Example 54], the IC50 in test [2] was found to be 10 µM. Consider `Cc1cccc(-c2csc(-n3ncc(C(=O)NCCN4CCCCC4)c3C(F)(F)F)n2)c1` [Example 55], for which, in test [2], the IC50 is 30 µM.

`CCN(CC)CCCNC(=O)c1cnn(-c2nc(-c3ccc(C(F)(F)F)cc3)cs2)c1C(F)(F)F` [Example 56]: the IC50 in test [2] came to 4 µM. Still for that read-out and setting: the result for `O=C(NCCN1CCCCC1)c1cnn(-c2nc(-c3ccc(C(F)(F)F)cc3)cs2)c1C(F)(F)F` [Example 57] reads 7 µM.

As for `NCCCCCNC(=O)c1cnn(-c2nc(-c3cccc(C(F)(F)F)c3)cs2)c1C(F)(F)F` [Example 61], the IC50 in test [2] amounted to 11.5 µM. `NCCCCNC(=O)c1cnn(-c2nc(-c3cccc(C(F)(F)F)c3)cs2)c1C(F)(F)F` [Example 62]: the IC50 in test [1] was 8.3 µM; in test [2], 4.6 µM.

On to `O=C(NCCCN1CCCCC1)c1cnn(-c2nc(-c3cccc(C(F)(F)F)c3)cs2)c1C(F)(F)F` [Example 89, 2-[4-[3-(N-Piperidino)propylcarbamoyl]-5-(trifluoromethyl)pyrazol-1-yl]-4-(3-trifluoromethylphenyl)thiazole], for which the IC50 was found to be 10 µM in test [1] and 13 µM in test [2]. In the same order, the values of `O=C(NCCCN1CCCC1)c1cnn(-c2nc(-c3cccc(C(F)(F)F)c3)cs2)c1C(F)(F)F` [Example 90] are 14 µM and 15 µM. For `Cc1c(C(=O)NCCCN2CCCCC2)cnn1-c1nc(-c2cccc(C(F)(F)F)c2)cs1` [Example 91], the IC50 in test [1] is 10 µM; in test [2], 5 µM. As for `Cc1ccc(-c2csc(-n3ncc(C(=O)NCCCN4CCCCC4)c3C(F)(F)F)n2)cc1` [Example 92], the IC50 in test [2] is 10 µM.

On to `Cc1ccc(-c2csc(-n3ncc(C(=O)NCCCN4CCCC4)c3C(F)(F)F)n2)cc1` [Example 93], for which the IC50 in test [2] was 30 µM. Same read-out and setting: the figure for `O=C(NCCCN1CCCCC1)c1cnn(-c2nc(-c3ccccc3)cs2)c1C(F)(F)F` [Example 94] is 40 µM. The same measure, in the same setting: the figure for `Cc1ccc(-c2csc(-n3ncc(C(=O)NCCCNC4CCCCC4)c3C(F)(F)F)n2)cc1` [Example 96] is 3.5 µM. As for `O=C(NCCCN1CCCCC1)c1cnn(-c2nc(-c3ccc(Cl)c(Cl)c3)cs2)c1C(F)(F)F` [Example 97], the IC50 in test [2] was found to be 10 µM. Still for that read-out and setting: the figure for `Cc1cccc(-c2csc(-n3ncc(C(=O)NCCCN4CCCC4)c3C(F)(F)F)n2)c1` [Example 99] is 30 µM; for `O=C(NCCCN1CCCCC1)c1cnn(-c2nc(-c3ccccc3C(F)(F)F)cs2)c1C(F)(F)F` [Example 100] it is 30 µM. For the compound `O=C(NCCCN1CCCC1)c1cnn(-c2nc(-c3ccccc3C(F)(F)F)cs2)c1C(F)(F)F` [Example 101], the IC50 in test [2] is 15 µM.

Regarding `O=C(NCCCNC1CCCCC1)c1cnn(-c2nc(-c3cccc(C(F)(F)F)c3)cs2)c1C(F)(F)F` [Example 102], the IC50 in test [1] came to 25 µM; in test [2] it was 6 µM. The like results for `O=C(NCCCNC1CCCCC1)c1cnn(-c2nc(-c3ccc(C(F)(F)F)cc3)cs2)c1C(F)(F)F` [Example 105] were, in that order, 44 µM and 8 µM. Take `O=C(NCCCN1CCCCC1)c1cnn(-c2nc(-c3cccc(Cl)c3)cs2)c1C(F)(F)F` [Example 106]: the IC50 in test [2] was determined as 30 µM.

Take `O=C(NCCCNC1CCCCC1)c1cnn(-c2nc(-c3cccc(Cl)c3)cs2)c1C(F)(F)F` [Example 107]: in test [2], the IC50 was 5 µM. The same measure, in the same setting: the figure for `O=C(NCCCNC1CCCCC1)c1cnn(-c2nc(-c3cccc(C(F)(F)F)c3)cs2)c1-c1ccccc1` [Example 108] is 20 µM. For `O=C(NCCCN1CCCCCC1)c1cnn(-c2nc(-c3cccc(C(F)(F)F)c3)cs2)c1C(F)(F)F` [Example 109], the IC50 in test [2] came to 6 µM.

For the compound `CC(C)NCCCNC(=O)c1cnn(-c2nc(-c3cccc(C(F)(F)F)c3)cs2)c1C(F)(F)F` [Example 112], the IC50 in test [2] came to 5 µM. As to `CCCCNCCCNC(=O)c1cnn(-c2nc(-c3cccc(C(F)(F)F)c3)cs2)c1C(F)(F)F` [Example 113], the IC50 in test [1] stood at 10 µM; in test [2], 3.1 µM.

Take `CN(C)C=NCCCNC(=O)c1cnn(-c2nc(-c3cccc(Cl)c3)cs2)c1C(F)(F)F` [Example 132, 2-[4-(3-(N,N-Dimethylformamidinyl)propylcarbamoyl]5-(trifluoromethyl)pyrazol-1-yl]-4-(3-chlorophenyl)thiazole]: the IC50 in test [2] turned out to be 7 µM. On to `NCCCOCc1cnn(-c2nc(-c3cccc(C(F)(F)F)c3)cs2)c1C(F)(F)F` [Example 138, 2-[4-[3-Aminopropoxymethyl]-5-(trifluoromethyl)pyrazol-1-yl]-4-(3-trifluoromethylphenyl)thiazole Hydrochloride], for which the IC50 in test [2] turned out to be 2.1 µM. Still for that read-out and setting: the result for `CCN(CC)CCNC(=O)c1ccc(-c2csc(-c3ccc(Cl)cc3)n2)cc1` [Example 177] reads 12.8 µM. Take `CCN(CC)CCNC(=O)c1ccc(-c2csc(-c3ccc(C(C)(C)C)cc3)n2)cc1` [Example 181]: in test [2] (setting [3]), the inhibition at 20 µM stood at 85%. On to `COc1ccc(-c2nc(-c3ccc(C(=O)NCCCN(C)C)cc3)cs2)cc1` [Example 187], for which the inhibition at 20 µM in test [2] (setting [3]) was determined as 89%. Same read-out and setting: the figure for `CC(C)N(CCCCNC(=O)c1ccc(-c2csc(-c3ccc(C(F)(F)F)cc3)n2)cc1)C(C)C` [Example 189] is 86%. As for `CCN(CC)CCCNC(=O)c1ccc(-c2csc(COc3ccc(Cl)cc3)n2)cc1` [Example 206], the IC50 in test [2] came to 5.1 µM. On to `CCCCNCCCNC(=O)c1ccc(-c2csc(-c3ccc(C(F)(F)F)cc3)n2)cc1` [Example 218], for which the inhibition at 20 µM in test [2] (setting [3]) was 90%. Regarding `Cn1c(C(=O)NCCCNC2CCCCC2)ccc1-c1nc(-c2cccc(C(F)(F)F)c2)cs1` [Example 236, 2-[2-(4-Cyclohexylaminopropylcarbamoyl)-1-methyl-1H-pyrrol-5-yl]-4(3-trifluoromethylphenyl)thiazole], in test [1], the IC50 is 13.5 µM. As for `Cn1c(C(=O)NCCCN)ccc1-c1nc(-c2ccccc2)c(C(=O)O)s1` [Example 237, 2-[2-(4-Aminopropylcarbamoyl)-1-methyl-1H-pyrrol-5-yl]-4-phenyl-1,3-thiazole-5-carboxylic acid monohydrochloride monohydrate], the inhibition at 50 µM in test [2] (Homo sapiens, at 50 μM, thrombin or ADP agonist, read-out: Aggregation (percentage increase in light transmission)) stood at 68%.
